Laboratory results from ChEMBL document CHEMBL4732022, “Generation of reactive oxygen species is the primary mode of action and cause of survivin suppression by sepantronium bromide (YM155)” (RSC Med Chem, 2021).
Active and inactive are the calls of the source. No cut-off for these calls is given here.

Legend:
[1] = target: Baculoviral IAP repeat-containing protein 5 (Homo sapiens) (UniProt O15392); assay: Inhibition of survivin in human MDA-MB-453 cells assessed as reduction in survivin mRNA expression measured after 72 hrs by qPCR analysis; assay type: cell-based
Sequence of Baculoviral IAP repeat-containing protein 5 (Homo sapiens) (O15392 whole entry): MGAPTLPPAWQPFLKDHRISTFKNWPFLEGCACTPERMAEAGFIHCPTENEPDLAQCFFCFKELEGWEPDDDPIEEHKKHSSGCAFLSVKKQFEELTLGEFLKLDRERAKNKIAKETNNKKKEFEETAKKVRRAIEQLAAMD

MDA-MB-231 [2] = assay: Downregulation of survivin protein expression in human MDA-MB-231 cells at 20 uM incubated for 72 hrs by Western blot analysis; assay type: functional, cell-based
MDA-MB-231 [3] = assay: Induction of ROS generation in human MDA-MB-231 cells assessed as increase in ROS level at 20 uM incubated for 12 hrs by […] based assay; assay type: functional, cell-based
[4] = target: Baculoviral IAP repeat-containing protein 5 (Homo sapiens) (UniProt O15392); assay: Inhibition of survivin in human MDA-MB-231 cells assessed as reduction in survivin mRNA expression measured after 72 hrs by qPCR analysis; assay type: cell-based
[5] = target: Baculoviral IAP repeat-containing protein 5 (Homo sapiens) (UniProt O15392); assay: Inhibition of survivin in human BT-20 cells assessed as reduction in survivin mRNA expression measured after 72 hrs by qPCR analysis; assay type: cell-based
MCF-10A = assay: Cytotoxicity against human MCF-10A cells at 200 uM; assay type: cell-based
MDA-MB-231 [6] = assay: Induction of ROS generation in human MDA-MB-231 cells assessed as increase in ROS level at 1 mM incubated for 12 hrs by […] based assay; assay type: functional, cell-based
MDA-MB-231 [7] = assay: Downregulation of survivin protein expression in human MDA-MB-231 cells at 1 mM incubated for 72 hrs by Western blot analysis; assay type: functional, cell-based

Row | Compound | inhibition [1] | Activity (MDA-MB-231 [2]) | Activity (MDA-MB-231 [3]) | inhibition [4] | inhibition [5] | Activity (MCF-10A) | Activity (MDA-MB-231 [6]) | Activity (MDA-MB-231 [7])
1 | CC1=CC(=O)c2ccccc2C1=O | Active | Active | Active | Active | Active |  |  | 
2 | CCCCS(=N)(=O)CCC(N)C(=O)O (stereo unspecified) [BUTHIONINE SULFOXIMINE] | Active |  |  | Active | Active | Non-Toxic | Active | Active
